# Measurements taken from PubChem BioAssay (NCI).
#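 The compound was tested at five concentrations on cells cultured in 96-well plates, with a 48-hour exposure period. GI50 = concentration required for 50% inhibition of growth. TGI denotes the concentration required for complete inhibition of growth.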 *1 amine or outer side, *2 acyl side, *3 side chain or, on linkers, in order; H or OH if unused. Where a SMILES comes first, the peptide text is derived from it. Bridges are numbered along the chain shown (N, C = ends). Roman numbers before positions name the chains, in order. [ ]: non-standard residue; d: D form. Actinocin(9to1) = Cc1c2oc3c(C)ccc(C(=O)[*:1])c3nc-2c(C(=O)[*:2])c(N)c1=O; NMeV = CN[CH](C(=O)O)C(C)C; Sar = CNCC(=O)O
# Tests used:
# Test in all cases: NCI anticancer screen, dose series, 48 h
# 786-0 renal = tested on: 786-0 renal
# A498 renal = tested on: A498 renal
# A549 NSCLC = tested on: A549 NSCLC
# ACHN renal = tested on: ACHN renal
# BT-549 breast = tested on: BT-549 breast
# CAKI-1 renal = tested on: CAKI-1 renal
# CCRF-CEM leukemia = tested on: CCRF-CEM leukemia
# COLO 205 colon = tested on: COLO 205 colon
# DU-145 prostate = tested on: DU-145 prostate
# EKVX NSCLC = tested on: EKVX NSCLC
# HCC-2998 colon = tested on: HCC-2998 colon
# HCT-116 colon = tested on: HCT-116 colon
# HCT-15 colon = tested on: HCT-15 colon
# HL-60(TB) leukemia = tested on: HL-60(TB) leukemia
# HOP-92 NSCLC = tested on: HOP-92 NSCLC
# IGROV1 ovarian = tested on: IGROV1 ovarian
# K-562 leukemia = tested on: K-562 leukemia
# KM12 colon = tested on: KM12 colon
# LOX IMVI melanoma = tested on: LOX IMVI melanoma
# M14 melanoma = tested on: M14 melanoma
# MALME-3M melanoma = tested on: MALME-3M melanoma
# MCF7 breast = tested on: MCF7 breast
# MDA-MB-231 breast = tested on: MDA-MB-231 breast
# MDA-MB-435 = tested on: MDA-MB-435
# MDA-N = tested on: MDA-N
# MOLT-4 leukemia = tested on: MOLT-4 leukemia
# NCI-H226 lung = tested on: NCI-H226 lung
# NCI-H23 lung = tested on: NCI-H23 lung
# NCI-H460 lung = tested on: NCI-H460 lung
# NCI-H522 lung = tested on: NCI-H522 lung
# NCI/ADR-RES ovarian = tested on: NCI/ADR-RES ovarian
# OVCAR-3 ovarian = tested on: OVCAR-3 ovarian
# OVCAR-4 ovarian = tested on: OVCAR-4 ovarian
# OVCAR-5 ovarian = tested on: OVCAR-5 ovarian
# OVCAR-8 ovarian = tested on: OVCAR-8 ovarian
# PC-3 prostate = tested on: PC-3 prostate
# RPMI-8226 leukemia = tested on: RPMI-8226 leukemia
# RXF 393 renal = tested on: RXF 393 renal
# SF-295 CNS = tested on: SF-295 CNS
# SF-539 CNS = tested on: SF-539 CNS
# SK-MEL-2 melanoma = tested on: SK-MEL-2 melanoma
# SK-MEL-5 melanoma = tested on: SK-MEL-5 melanoma
# SK-OV-3 ovarian = tested on: SK-OV-3 ovarian
# SN12C renal = tested on: SN12C renal
# SNB-19 CNS = tested on: SNB-19 CNS
# SNB-75 CNS = tested on: SNB-75 CNS
# SR leukemia = tested on: SR leukemia
# SW-620 colon = tested on: SW-620 colon
# TK-10 renal = tested on: TK-10 renal
# U251 CNS = tested on: U251 CNS
# UACC-257 melanoma = tested on: UACC-257 melanoma
# UACC-62 melanoma = tested on: UACC-62 melanoma
# UO-31 renal = tested on: UO-31 renal
# HOP-62 NSCLC = tested on: HOP-62 NSCLC
# HS 578T breast = tested on: HS 578T breast
# HT29 colon = tested on: HT29 colon
# SF-268 CNS = tested on: SF-268 CNS
# SK-MEL-28 melanoma = tested on: SK-MEL-28 melanoma
compound,measurement,setting,value
C=C1c2nc3ccccc3n2C=C(c2ccc(OC)cc2)N1c1ccc(OC)cc1,TGI,786-0 renal,> 100000 nM
same,TGI,A498 renal,64900 nM
same,TGI,A549 NSCLC,> 100000 nM
same,TGI,ACHN renal,25000 nM
same,TGI,BT-549 breast,39800 nM
same,TGI,CAKI-1 renal,19300 nM
same,TGI,CCRF-CEM leukemia,> 100000 nM
same,TGI,COLO 205 colon,> 100000 nM
same,TGI,DU-145 prostate,> 100000 nM
same,TGI,EKVX NSCLC,> 100000 nM
same,TGI,HCC-2998 colon,> 100000 nM
same,TGI,HCT-116 colon,74400 nM
same,TGI,HCT-15 colon,> 100000 nM
same,TGI,HL-60(TB) leukemia,> 100000 nM
same,TGI,HOP-92 NSCLC,85500 nM
same,TGI,IGROV1 ovarian,94300 nM
same,TGI,K-562 leukemia,> 100000 nM
same,TGI,KM12 colon,44900 nM
same,TGI,LOX IMVI melanoma,> 100000 nM
same,TGI,M14 melanoma,> 100000 nM
same,TGI,MALME-3M melanoma,48400 nM
same,TGI,MCF7 breast,> 100000 nM
same,TGI,MDA-MB-231 breast,75900 nM
same,TGI,MDA-MB-435,> 100000 nM
same,TGI,MDA-N,> 100000 nM
same,TGI,MOLT-4 leukemia,> 100000 nM
same,TGI,NCI-H226 lung,43100 nM
same,TGI,NCI-H23 lung,78200 nM
same,TGI,NCI-H460 lung,> 100000 nM
same,TGI,NCI-H522 lung,> 100000 nM
same,TGI,NCI/ADR-RES ovarian,31800 nM
same,TGI,OVCAR-3 ovarian,32200 nM
same,TGI,OVCAR-4 ovarian,> 100000 nM
same,TGI,OVCAR-5 ovarian,> 100000 nM
same,TGI,OVCAR-8 ovarian,24400 nM
same,TGI,PC-3 prostate,> 100000 nM
same,TGI,RPMI-8226 leukemia,> 100000 nM
same,TGI,RXF 393 renal,29800 nM
same,TGI,SF-295 CNS,32600 nM
same,TGI,SF-539 CNS,64800 nM
same,TGI,SK-MEL-2 melanoma,> 100000 nM
same,TGI,SK-MEL-5 melanoma,35100 nM
same,TGI,SK-OV-3 ovarian,63400 nM
same,TGI,SN12C renal,59000 nM
same,TGI,SNB-19 CNS,33900 nM
same,TGI,SNB-75 CNS,30600 nM
same,TGI,SR leukemia,> 100000 nM
same,TGI,SW-620 colon,> 100000 nM
same,TGI,TK-10 renal,24300 nM
same,TGI,U251 CNS,28400 nM
same,TGI,UACC-257 melanoma,> 100000 nM
same,TGI,UACC-62 melanoma,51800 nM
same,TGI,UO-31 renal,58500 nM
"Cc1c2oc3c(C)ccc(C(=O)NC4C(=O)NC(C(C)C)C(=O)N5CCCC5C(=O)N(C)CC(=O)N(C)C(C(C)C)C(=O)OC4C)c3nc-2c(C(=O)NC2C(=O)NC(C(C)C)C(=O)N3CCCC3C(=O)N(C)CC(=O)N(C)C(C(C)C)C(=O)OC2C)c(N)c1=O (stereo not drawn) (I: TVP[Sar][NMeV] / II: TVP[Sar][NMeV]; ester I:1-I:C, II:1-II:C; linker I:N-II:N via Actinocin(9to1); configuration not given here)",TGI,786-0 renal,> 1000 nM
same,TGI,A498 renal,15.2 nM
same,TGI,A549 NSCLC,> 867 nM
same,TGI,BT-549 breast,29.2 nM
same,TGI,CAKI-1 renal,> 316 nM
same,TGI,CCRF-CEM leukemia,3.3 nM
same,TGI,COLO 205 colon,2.99 nM
same,GI50,DU-145 prostate,1.29 nM
same,TGI,DU-145 prostate,> 1000 nM
same,TGI,EKVX NSCLC,> 779 nM
same,TGI,HCC-2998 colon,27.2 nM
same,TGI,HCT-116 colon,> 1000 nM
same,TGI,HCT-15 colon,> 1000 nM
same,GI50,HL-60(TB) leukemia,0.288 nM
same,TGI,HL-60(TB) leukemia,23.7 nM
same,TGI,HOP-62 NSCLC,6.96 nM
same,TGI,HOP-92 NSCLC,20.3 nM
same,TGI,HS 578T breast,4.39 nM
same,TGI,HT29 colon,2.07 nM
same,TGI,IGROV1 ovarian,> 396 nM
same,TGI,KM12 colon,19 nM
same,TGI,M14 melanoma,20.7 nM
same,TGI,MALME-3M melanoma,14.5 nM
same,TGI,MCF7 breast,3.42 nM
same,TGI,MDA-MB-231 breast,> 231 nM
same,TGI,MDA-MB-435,12.5 nM
same,TGI,MDA-N,9.4 nM
same,TGI,MOLT-4 leukemia,1.37 nM
same,TGI,NCI-H23 lung,4.81 nM
same,TGI,NCI-H460 lung,1.26 nM
same,TGI,NCI-H522 lung,1.37 nM
same,TGI,NCI/ADR-RES ovarian,> 1000 nM
same,TGI,OVCAR-3 ovarian,9.07 nM
same,TGI,OVCAR-4 ovarian,1.87 nM
same,GI50,OVCAR-5 ovarian,1.45 nM
same,TGI,OVCAR-5 ovarian,6.63 nM
same,TGI,OVCAR-8 ovarian,7.72 nM
same,TGI,PC-3 prostate,31.7 nM
same,TGI,RPMI-8226 leukemia,> 1000 nM
same,TGI,RXF 393 renal,6.53 nM
same,TGI,SF-268 CNS,26.9 nM
same,TGI,SF-295 CNS,68.7 nM
same,TGI,SF-539 CNS,2.99 nM
same,TGI,SK-MEL-2 melanoma,2.95 nM
same,TGI,SK-MEL-28 melanoma,12.5 nM
same,TGI,SK-MEL-5 melanoma,15.3 nM
same,TGI,SK-OV-3 ovarian,> 1000 nM
same,TGI,SN12C renal,37.9 nM
same,TGI,SNB-19 CNS,> 350 nM
same,TGI,SNB-75 CNS,0.907 nM
same,TGI,SW-620 colon,105 nM
same,TGI,TK-10 renal,> 246 nM
same,TGI,UACC-257 melanoma,23.1 nM
same,TGI,UACC-62 melanoma,1.92 nM
same,TGI,UO-31 renal,120 nM
